# Patent US6764682B1, “Adjuvant compositions containing more than one adjuvant” (priority 1994, dated 2004)
# Columns and labels:
# Assay type in all cases: in vivo
# [1] = system: peptide-specific IgG antibodies; assay: Guinea pig antibody responses to synthetic peptides formulated with different adjuvants (peptide-specific ELISA); details: mean titer of three guinea pigs, three injections
# [2] = system: CLTB-56; assay: Guinea pig antibody response to CLTB-36 in different adjuvants, ELISA titer against CLTB-56; details: guinea pigs (n = 3) immunized with 20 μg CLTB-36 in the named adjuvant; boosters at 2, 4 and 6 weeks
# [3] = system: CLTB-36; assay: Guinea pig antibody response to CLTB-36 in different adjuvants, ELISA titer against CLTB-36; details: guinea pigs (n = 3) immunized with 20 μg CLTB-36 in the named adjuvant; boosters at 2, 4 and 6 weeks
# [4] = adjuvant BAY R1005, 100 μg peptide per dose (CLTB-36 20 μg)
# [5] = adjuvant CFA, 100 μg peptide per dose (CLTB-36 20 μg)
# [6] = adjuvant OTH, 100 μg peptide per dose (CLTB-36 20 μg)
# [7] = adjuvant TPC, 100 μg peptide per dose (CLTB-36 20 μg)
# [8] = adjuvant alum, 100 μg peptide per dose (CLTB-36 20 μg)
# [9] = peptide in PBS (no adjuvant), 100 μg peptide per dose (CLTB-36 20 μg)
# [10] = Table 3, adjuvant BAY R1005 + alum, 100 μg peptide per dose
Compound,"Peptide-Specific Antibody Titre [1, 4]","Peptide-Specific Antibody Titre [1, 5]","Peptide-Specific Antibody Titre [1, 6]","Peptide-Specific Antibody Titre [1, 7]","Peptide-Specific Antibody Titre [1, 8]","Peptide-Specific Antibody Titre [1, 9]","Peptide-Specific Antibody Titre [1, 10]",Average titers against CLTB-56 [2],Average titers against CLTB-36 [3],"Peptide-Specific Antibody Titre ([1]; Table 3, adjuvant BAY R1005, 100 μg peptide per dose)","Peptide-Specific Antibody Titre ([1]; Table 3, adjuvant alum, 100 μg peptide per dose)"
GPKEPFRDYVDRFYKNTRQSTPIGLGQALYTTRG [CLTB-76],"45,833","625,000","6,400","3,200","9,166","1,833",,,,,
IKEIDESESEDYAKEGFRAP [PSP-AA],,"12,500",,,"1,600",200,,,,,
PQPGPQPPQPPQPQPEAPAPQPPC [69K-P1],"32,500","10,000",,"1,600","32,500",800,,,,,
GPKEPFRDYVDRFYKNRKRIHIGPGRAFYTTKN [CLTB-36],"72,800","256,000","6,400","3,200","10,000",400,,,,,
QSYSIMSIIKEEVLAYAVQLPLPLYGVIDTP [RSV-F],"3,850","6,400","3,200","1,600","32,000",500,"128,000",,,,
"CC(=O)O.CCCCCCCCCCCCCCCCCCN(C(=O)CCCCCCCCCCC)[C@@H]1O[C@H](CO)[C@@H](O)[C@H](O)[C@H]1NC(=O)[C@@H](N)CC(C)C [BAY R1005, N-(2-deoxy-2-L-leucylamino-β-D-glucopyranosyl)-N-octadecyldodecanamide acetate]",,,,,,,,"4,333","62,500",,
CSNNPTCWAICKRIPNKKPGKKT [RSV-G2],"3,200","128,000",,"1,600","31,500","1,280",,,,,
PDPGDLVEYIMNYTGNQQSRWGLGSPNCHGPDWASPVCQRHSP [RV-EP27],,"128,000","25,600",,"12,800",400,,,,,
TKQRQNKPPSKPNNDFHFEVFNFVPC [RSV-G1],"31,500","315,000",,"6,400","128,000","1,600",,,,,
GPKEPFRDYVDRFYKNTRKRIRIQRGGRAFVTIGK [CLTB-72],"45,800","312,500","6,400","3,200","37,500","2,333",,,,,
NQITSALSTQQEFRDLKKYLPSKDKSVVSLQDRAC [HIBP1-5E],"32,500","312,500",,"1,600","8,333",200,,,,,
TVGKKTYQVEACCSNLSYVKFGM [TBP2-3],"32,500","12,500",,,"43,333",400,,,,,
PIVNKQSCSISNIETVIEFQQ [RSV-FND2],"10,000","12,800","6,400","3,200","7,800",400,"25,600",,,"10,000","7,800"
